The text below walks through data of PubChem BioAssay (NCI).

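Cultured in 96-well plates, cells were exposed to test compound for 48 hours across five concentrations. Definition used: TGI = concentration required for complete inhibition of growth.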

Among the test systems are MDA-N; UACC-257 melanoma; CCRF-CEM leukemia; SNB-19 CNS; UACC-62 melanoma; SW-620 colon; MCF7 breast; MDA-MB-231 breast; HT29 colon; U251 CNS; SK-OV-3 ovarian; KM12 colon; EKVX NSCLC; SK-MEL-28 melanoma; SK-MEL-5 melanoma; SF-539 CNS; HCC-2998 colon; T-47D breast; OVCAR-8 ovarian; NCI-H522 lung.
Common to all, as to test: NCI anticancer screen, dose series, 48 h

For `O=C1C(Cl)=C(OCCCCl)C(=O)c2c(O)ccc(O)c21`, the TGI came out at 2.98 µM with MDA-N; 5.98 µM in the assay with UACC-257 melanoma; 0.168 µM with CCRF-CEM leukemia; 32.5 µM in the assay with SNB-19 CNS; 3.9 µM in the assay with UACC-62 melanoma; 4.29 µM in the assay on SW-620 colon. In addition, the TGI in the assay on MCF7 breast amounted to 3.12 µM; in the assay on MDA-MB-231 breast, 6 µM; in the assay with HT29 colon, 5 µM; with U251 CNS, 13.8 µM; with SK-OV-3 ovarian, 35.9 µM; in the assay on KM12 colon, 29.1 µM. Further, the TGI in the assay on EKVX NSCLC was found to be 40.9 µM; in the assay on SK-MEL-28 melanoma it was 4.48 µM; with SK-MEL-5 melanoma, 3.33 µM; with SF-539 CNS it was 8.97 µM; with HCC-2998 colon, 30.2 µM; in the assay on T-47D breast, 6.43 µM. For the same molecule, in the assay with OVCAR-8 ovarian, the TGI came to 20.9 µM.

In the case of `CC(=O)OCC1OC(SC2=N/C(=C\c3cc4c(=O)c5ccccc5sc4s3)C(=O)N2c2ccccc2)C(OC(C)=O)C(OC(C)=O)C1OC(C)=O` (stereo unspecified), the TGI with MDA-N, in the assay with UACC-257 melanoma, with SNB-19 CNS, with UACC-62 melanoma, in the assay with SW-620 colon and with MCF7 breast was greater than 100 µM each time. Also, the TGI is greater than 100 µM in the assay on MDA-MB-231 breast; greater than 100 µM with HT29 colon; 62.8 µM in the assay with U251 CNS; greater than 100 µM in the assay on KM12 colon; greater than 100 µM in the assay on EKVX NSCLC; greater than 100 µM in the assay with SK-MEL-28 melanoma. Besides, the TGI in the assay on SK-MEL-5 melanoma, in the assay on HCC-2998 colon, in the assay with NCI-H522 lung, with T-47D breast and in the assay with OVCAR-8 ovarian was greater than 100 µM in each case.

As to `CCOC(=O)C1=[N+]([O-])OC2=C(O)CCCC21` (stereo unspecified), the TGI in the assay with MDA-N, in the assay on UACC-257 melanoma, with CCRF-CEM leukemia, with SNB-19 CNS, in the assay on UACC-62 melanoma and in the assay with SW-620 colon was greater than 100 µM in each case. Besides, the TGI in the assay with MCF7 breast, in the assay with MDA-MB-231 breast, with HT29 colon, with U251 CNS, in the assay on SK-OV-3 ovarian and in the assay with KM12 colon was greater than 100 µM each time. Besides, the TGI in the assay on EKVX NSCLC, in the assay on SK-MEL-28 melanoma, in the assay with SK-MEL-5 melanoma, in the assay on HCC-2998 colon, in the assay on NCI-H522 lung and in the assay with T-47D breast was greater than 100 µM throughout. Besides, in the assay with OVCAR-8 ovarian, the TGI is greater than 100 µM.

Consider `N#CC12C(=O)N3C(=NC(c4ccccc4)NC3c3ccccc3)C1(C#N)C(c1ccccc1)NC1=C2CCC1` (stereo unspecified), for which the TGI in the assay on MDA-N, in the assay on UACC-257 melanoma, in the assay on CCRF-CEM leukemia, in the assay on SNB-19 CNS, in the assay on UACC-62 melanoma and in the assay on SW-620 colon was greater than 100 µM each time. Also, the TGI in the assay with MCF7 breast, with MDA-MB-231 breast, in the assay with HT29 colon, with U251 CNS, with SK-OV-3 ovarian and in the assay with KM12 colon was greater than 100 µM throughout. For the same molecule, the TGI in the assay with EKVX NSCLC, in the assay with SK-MEL-28 melanoma, in the assay on SK-MEL-5 melanoma, with HCC-2998 colon, in the assay with NCI-H522 lung and with T-47D breast was greater than 100 µM each time. In the assay on OVCAR-8 ovarian, this molecule gave a TGI greater than 100 µM.

`O=C(/C=C/c1csc(-c2ccccc2)n1)NCc1ccc(C(=O)NCCc2ccccc2)cc1`: the TGI is greater than 100 µM with MDA-N; greater than 100 µM in the assay with UACC-257 melanoma; greater than 100 µM with CCRF-CEM leukemia; 49.1 µM with SNB-19 CNS; greater than 100 µM in the assay with UACC-62 melanoma; greater than 100 µM in the assay with SW-620 colon. In addition, the TGI was greater than 100 µM with MCF7 breast; 55.6 µM with MDA-MB-231 breast; 30.4 µM in the assay with HT29 colon; greater than 100 µM in the assay with U251 CNS; 56.2 µM in the assay on SK-OV-3 ovarian; greater than 100 µM with KM12 colon. The TGI in the assay on EKVX NSCLC, with SK-MEL-28 melanoma, with SK-MEL-5 melanoma, in the assay on HCC-2998 colon, with NCI-H522 lung and in the assay with T-47D breast was greater than 100 µM in each case. The TGI in the assay with OVCAR-8 ovarian came to 63 µM.

In the case of `CCOC(=O)c1c(N)sc2c1C(C(=O)OCC)CC2` (stereo unspecified), the TGI with MDA-N, in the assay on UACC-257 melanoma, in the assay on SNB-19 CNS, in the assay on UACC-62 melanoma, with SW-620 colon and in the assay with MCF7 breast was greater than 100 µM throughout. The TGI in the assay with MDA-MB-231 breast, in the assay on HT29 colon, in the assay on U251 CNS, in the assay with KM12 colon, with EKVX NSCLC and in the assay on SK-MEL-28 melanoma was greater than 100 µM throughout. The TGI in the assay on SK-MEL-5 melanoma, in the assay with HCC-2998 colon, in the assay with T-47D breast and in the assay with OVCAR-8 ovarian was greater than 100 µM throughout.

Consider `O=S(=O)(O)c1ccc(O)c2ncc(Cl)cc12`, for which the TGI with MDA-N, in the assay on UACC-257 melanoma, in the assay with CCRF-CEM leukemia, with SNB-19 CNS, in the assay with UACC-62 melanoma and with SW-620 colon was greater than 100 µM each time. Further, the TGI with MCF7 breast, in the assay with MDA-MB-231 breast, in the assay on HT29 colon, in the assay with U251 CNS, in the assay with KM12 colon and in the assay with EKVX NSCLC was greater than 100 µM in each case. Besides, the TGI in the assay with SK-MEL-28 melanoma, in the assay with SK-MEL-5 melanoma, with SF-539 CNS, in the assay on HCC-2998 colon, with T-47D breast and with OVCAR-8 ovarian was greater than 100 µM throughout.

Take `NC1CC(=O)c2sc(I)cc21` (stereo unspecified): the TGI in the assay with MDA-N, in the assay with UACC-257 melanoma, in the assay on CCRF-CEM leukemia, in the assay with SNB-19 CNS, in the assay with UACC-62 melanoma and with SW-620 colon was greater than 100 µM throughout. In addition, the TGI with MCF7 breast, in the assay with MDA-MB-231 breast, in the assay with HT29 colon, with U251 CNS, in the assay with SK-OV-3 ovarian and with KM12 colon was greater than 100 µM in each case. Further, the TGI with EKVX NSCLC, with SK-MEL-28 melanoma, with SK-MEL-5 melanoma, in the assay with SF-539 CNS, in the assay with HCC-2998 colon and with T-47D breast was greater than 100 µM in each case. The same molecule returned a TGI in the assay on OVCAR-8 ovarian greater than 100 µM.
